± gives the expanded uncertainty stated by the source.
How the values were obtained:
[1] = Molar enthalpy of transition or fusion; conditions: Crystal; DSC
[2] = Crystal; DTA

In the case of CCOc1ccccc1C(N)=O [Ethenzamide], the “Molar enthalpy of transition or fusion” value [1] is reported as 4.89 ± 0.222 kcal/mol and the Normal melting temperature [2] is reported as 138.33 ± 0.39 °C.

Reference: the NIST ThermoML archive (doi:10.1016/j.fluid.2016.08.019)
